We go through one substance from patent publication US11274090B2, “P300/CBP HAT inhibitors” (Constellation Pharmaceuticals, Inc., priority 2018, dated 2022).

The test system of assay [1] is acetylation of chromatin at H3K18 (p300 and CBP) in HCT-116 cells. In words: H3K18Ac MSD cellular assay. The class given is cell-based. Particulars: 2 hr treatment. How it is done:
Select compounds were also evaluated in a H3K18Ac MSD cellular assay that measures the ability of compounds to inhibit the acetylation of chromatin at H3K18, a process catalyzed by p300 and CBP. In a typical experiment the p300 HAT inhibitory activity inside cells of the compounds described herein was determined in accordance with the following experimental method. 20 k HCT-116 cells per well are plated in 75 μL RPMI+10% FBS media the night before treatment. Compounds plated in DMSO at 4× final concentration are resuspended in 30 μL RPMI+10% FBS, then 25 μL is combined with corresponding wells containing cells. Treated cells are incubated for 2 hr at 37° C., then lysed in 500 μL final volume and frozen at −80° C. MSD plates (Meso Scale Discovery) are coated overnight at 4° C. with 60 μL 1:500 α-total histone antibody (Millipore MAB3422) in PBS. Plates are then blocked with 5% BSA in TBST shaking at RT for 1 hr, washed, and 30 μL lysate added to each well for 2 hr shaking at RT. Plates are washed and 25 μL 1:216 α-H3K18ac antibody (CST 9675) in PBS added, then incubated for 1 hr shaking at RT. Plates are washed again, then 25 μL 1:1000 Sulfo-Tag goat α-rabbit antibody (Meso Scale Discovery R32Ab-1) in PBS is added for 1 hr shaking at RT. Plates are washed once more, then 150 μL 1× Read Buffer (MSD #R92TD-3) is added to all wells and read on MSD SECTOR Imager 2400 using the conventional read setup.

In assay [2] the target is full length p300 (Homo sapiens (Human), UniProt Q09472). The assay can be described thus: full length p300 SPA assay. The class given is biochemical. To be noted: average of at least 2 replicate titrations, read-out: FL P300 IC50.
full length p300, sequence (Q09472 whole entry, the tested form may be a part): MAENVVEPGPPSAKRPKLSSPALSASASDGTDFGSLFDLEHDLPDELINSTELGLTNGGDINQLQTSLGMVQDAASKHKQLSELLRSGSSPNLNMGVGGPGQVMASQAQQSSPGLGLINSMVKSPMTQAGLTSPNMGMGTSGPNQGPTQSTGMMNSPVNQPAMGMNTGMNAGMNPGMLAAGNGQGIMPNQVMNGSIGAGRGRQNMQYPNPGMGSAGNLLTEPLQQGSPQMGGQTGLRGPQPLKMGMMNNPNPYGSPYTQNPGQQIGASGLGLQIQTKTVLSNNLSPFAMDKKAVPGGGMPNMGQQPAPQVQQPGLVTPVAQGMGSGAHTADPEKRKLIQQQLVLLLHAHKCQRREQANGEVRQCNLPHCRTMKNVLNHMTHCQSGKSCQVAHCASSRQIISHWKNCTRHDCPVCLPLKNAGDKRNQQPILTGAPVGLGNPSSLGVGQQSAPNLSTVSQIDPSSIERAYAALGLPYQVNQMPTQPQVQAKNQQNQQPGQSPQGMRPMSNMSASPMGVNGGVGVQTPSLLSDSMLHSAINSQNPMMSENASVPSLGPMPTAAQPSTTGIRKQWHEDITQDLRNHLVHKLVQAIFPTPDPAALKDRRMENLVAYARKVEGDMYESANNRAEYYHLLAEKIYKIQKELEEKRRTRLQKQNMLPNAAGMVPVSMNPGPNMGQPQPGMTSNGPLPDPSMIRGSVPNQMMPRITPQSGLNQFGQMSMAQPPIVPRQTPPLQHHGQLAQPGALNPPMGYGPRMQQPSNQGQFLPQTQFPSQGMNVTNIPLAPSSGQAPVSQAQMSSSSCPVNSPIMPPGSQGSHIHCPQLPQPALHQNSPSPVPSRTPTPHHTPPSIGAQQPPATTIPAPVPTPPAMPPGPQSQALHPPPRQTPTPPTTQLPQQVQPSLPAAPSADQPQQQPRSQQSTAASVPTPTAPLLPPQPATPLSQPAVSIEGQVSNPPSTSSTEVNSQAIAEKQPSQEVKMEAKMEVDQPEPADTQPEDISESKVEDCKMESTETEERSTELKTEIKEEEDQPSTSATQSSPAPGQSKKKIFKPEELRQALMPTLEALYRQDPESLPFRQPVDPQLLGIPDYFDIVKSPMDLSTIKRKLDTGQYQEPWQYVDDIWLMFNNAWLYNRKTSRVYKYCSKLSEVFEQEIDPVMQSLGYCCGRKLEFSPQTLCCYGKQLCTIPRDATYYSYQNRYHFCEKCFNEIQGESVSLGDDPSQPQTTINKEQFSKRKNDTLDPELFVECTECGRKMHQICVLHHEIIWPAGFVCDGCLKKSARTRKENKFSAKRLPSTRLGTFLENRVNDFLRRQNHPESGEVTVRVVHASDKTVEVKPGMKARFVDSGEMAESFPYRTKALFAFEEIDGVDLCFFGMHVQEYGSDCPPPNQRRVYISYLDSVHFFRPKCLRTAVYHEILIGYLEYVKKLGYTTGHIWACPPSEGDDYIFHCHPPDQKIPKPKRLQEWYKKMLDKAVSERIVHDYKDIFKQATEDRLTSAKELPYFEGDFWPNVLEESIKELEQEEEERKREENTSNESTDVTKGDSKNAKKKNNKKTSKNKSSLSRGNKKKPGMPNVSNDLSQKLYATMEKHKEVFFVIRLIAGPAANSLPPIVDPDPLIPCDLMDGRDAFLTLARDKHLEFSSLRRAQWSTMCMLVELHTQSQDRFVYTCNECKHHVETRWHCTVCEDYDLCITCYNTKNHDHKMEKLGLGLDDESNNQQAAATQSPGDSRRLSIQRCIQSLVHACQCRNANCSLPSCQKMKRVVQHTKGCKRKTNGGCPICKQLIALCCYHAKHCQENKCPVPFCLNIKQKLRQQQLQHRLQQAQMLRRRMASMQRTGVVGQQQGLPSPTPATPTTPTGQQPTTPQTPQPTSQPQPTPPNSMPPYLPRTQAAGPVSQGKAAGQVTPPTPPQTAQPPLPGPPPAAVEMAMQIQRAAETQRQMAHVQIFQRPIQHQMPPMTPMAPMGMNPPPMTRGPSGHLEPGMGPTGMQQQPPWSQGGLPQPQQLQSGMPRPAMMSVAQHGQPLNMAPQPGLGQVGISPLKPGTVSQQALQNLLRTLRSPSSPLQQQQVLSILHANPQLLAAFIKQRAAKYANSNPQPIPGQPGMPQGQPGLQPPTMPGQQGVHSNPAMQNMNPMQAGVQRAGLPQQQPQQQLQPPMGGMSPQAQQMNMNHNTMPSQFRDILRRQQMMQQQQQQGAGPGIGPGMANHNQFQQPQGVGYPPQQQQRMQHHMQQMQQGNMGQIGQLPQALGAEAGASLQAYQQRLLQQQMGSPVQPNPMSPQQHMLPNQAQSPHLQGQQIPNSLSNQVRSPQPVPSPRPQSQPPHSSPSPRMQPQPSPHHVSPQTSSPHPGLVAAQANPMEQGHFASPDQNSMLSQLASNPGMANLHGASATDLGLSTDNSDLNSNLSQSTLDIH
In assay [3] the target is p300 HAT domain (residues 1287-1666) (Homo sapiens (Human), UniProt Q09472). In words: p300 HAT SPA assay (scintillation proximity assay, acetylation of biotinylated H3(1-21) peptide). The class given is biochemical. Particulars: average of at least 2 replicate titrations. The essentials: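 Scintillation proximity readout of acetylated biotin-H3(1-21) captured on streptavidin plates after 1.5 hr at RT; enzyme was Ni2+/anion-exchange-purified HAT domain in 20 mM Hepes pH 7.5. Inhibitor IC50s calculated from the data.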
p300 HAT domain (residues 1287-1666), sequence (Q09472 1287-1666): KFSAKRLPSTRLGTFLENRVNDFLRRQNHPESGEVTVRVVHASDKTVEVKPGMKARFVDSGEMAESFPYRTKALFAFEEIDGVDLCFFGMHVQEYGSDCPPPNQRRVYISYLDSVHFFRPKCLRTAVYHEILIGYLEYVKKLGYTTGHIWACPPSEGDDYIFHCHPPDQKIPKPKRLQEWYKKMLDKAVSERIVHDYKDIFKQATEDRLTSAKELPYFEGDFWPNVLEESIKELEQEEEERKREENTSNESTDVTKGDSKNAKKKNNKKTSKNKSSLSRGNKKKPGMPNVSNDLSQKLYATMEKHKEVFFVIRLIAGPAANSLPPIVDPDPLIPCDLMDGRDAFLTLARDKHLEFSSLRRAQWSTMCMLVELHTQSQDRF
Background: SPA uses beads or plates that emit light when radiolabelled molecules are held near them.

By EC50 is commonly meant the concentration needed to bring the measured effect to its halfway point. For orientation: IC50 means the midpoint of a concentration-inhibition curve. In assay [1], “(S,R)-, (R,S)-, (S,S)-, (R,R)-(2-((2-(4-cyanophenyl)propyl)amino)-N-(5-(1-(difluoromethyl)-1H-pyrazol-4-yl)pyridin-2-yl)-2-phenylacetamide [20 Isomer 2]” registered an EC50 of 22.6 nM. For the same substance, the IC50 in assay [2] is 1.64 nM; in assay [3] it was 13.7 nM.
